According to patent US20030124590A1, “Carbohydrate response element binding protein and uses thereof” (priority 2001, published 2003):

Assays:
[1] = system: L-PK gene; experiment: L-PK promoter luciferase reporter in ChREBP-transfected primary hepatocytes with kinase/phosphatase inhibitors or db-cAMP; conditions: treatment with db-cAMP, low and high glucose
Protocol: Primary hepatocytes were prepared from male Sprague-Dawley rats using the collagenase (Life Technologies, Inc.) perfusion method (Berry and Friend (1969) J Cell Bio […], 506-520) and plated in collagen-coated six-well tissue culture plates (Primaria Falcon, Franklin Lakes, N.J.) at a density of 1×10^6 cells/well in glucose-free Dulbecco's modified Eagle's medium (Life Technologies, Inc.) supplemented with 100 nM dexamethasone, 10 nM insulin, 100 units/ml penicillin, 100 μg/ml streptomycin and 10% dialyzed fetal bovine serum (Life Technologies, Inc.). Following attachment, synthetic liposomes were used to transfect hepatocytes with 0.5 μg of the luciferase reporter plasmid and 0.1 μg of the internal control plasmid pRL-TK. After 14 h the media was replaced by Dulbecco's modified Eagle medium supplemented with 100 nM dexamethasone, 10 nM insulin, 10% Fetal Bovine Serum and either 10 mM lactate, 5.5 mM glucose or 27.5 mM glucose. The cells were incubated for an additional 12 h prior to determination of luciferase activity using the Dual-Luciferase Reporter Assay System (Promega).
Protein Kinase and Protein Phosphatase Inhibitors—Prior to exchange to 5.5 or 27.5 mM glucose medium, transfected primary culture hepatocytes were treated for 1 h with 10 μM H-89, 500 nM cantharidic acid (Calbiochem), 5 μM KN-62 (Calbiochem), 30 μM PD98059 (Calbiochem), 50 μM Genistein, or dimethylsulfoxide vehicle.
Rat primary cultured hepatocytes were transfected a plasmid comprising a gene encoding the wild type (WT)-ChREBP. H-89, cantharidic acid, or dimethylsulfoxide vehicle was added, and the cells were incubated in 5.5 mM (□) or 27.5 mM (▪) glucose for 12 h.
Rat primary cultured hepatocytes were transfected with wild type (WT)-ChREBP, S626A, S626D, T666A, or T666D. After transfection, the cells were incubated in 5.5 mM (□) or 27.5 mM (▪) glucose for 12 h. […] Rat primary cultured hepatocytes were transfected with wild type (WT)-ChREBP, S196A+S626A, or S196A+T666A. After transfection, cells were incubated under 5.5 mM (□) or 27.5 mM (▪) glucose, and cAMP was added both low and high glucose.

[2] = system: GFP-fused ChREBP; experiment: Subcellular localization of GFP-fused ChREBP in primary hepatocytes (confocal microscopy); type: cell-based, rat; conditions: within 10 min after addition of db-cAMP into 27.5 mM glucose medium, preliminary, n=3
Protocol: Determination of Subcellular Localization of ChREBP—Subcellular localization of GFP-fused WT-ChREBP or its mutants was determined using a confocal laser scanning microscope (Bio Rad, Hercules, Calif.). In order to quantitate nuclear localization of ChREBP, for each condition, 100 transfected hepatocytes from 5 independent experiments were scored in a blinded fashion as to whether the GFP-fused ChREBP was predominantly nuclear or cytoplasmic. The identity of the nucleus was verified by comparative phase-contrast microscopy. B. Results
Rat primary cultured hepatocytes were transfected with a plasmid comprising a gene encoding the GFP-fused wild type-ChREBP or NLS domain deletion mutants. […] The values are expressed as mean±SE. *P<0.05 compared to that of wild type-ChREBP.

[3] = system: ChREBP; experiment: Intraperitoneal db-cAMP in rats, gel shift of liver nuclear extracts; type: in vivo, rat; conditions: rats fed high carbohydrate diet, db-cAMP 1 mmol/kg intraperitoneally
Protocol: Treatment of Rats with Dibutyryl (db)-cAMP and Nuclear Extract Preparation—Male Sprague-Dawley rats weighting 250 g were used in all experiments. After 48 h starvation, the rats were fed a high carbohydrate diet and db-cAMP (1 mmol/kg) was injected intraperitoneally. The rats were sacrificed 10 min and 30 min after injection and nuclear extracts were prepared immediately from rat liver as described in Example 1. Gel shifts were performed as described in Example 2.

[4] = system: cultured hepatocytes; experiment: AMP, ADP, ATP assays in cultured hepatocytes; type: cell-based, rat; conditions: hepatocytes 12 h with 150 µM fatty acid, mean±S.E., n=4
Protocol: Hepatocytes were scraped and collected directly into 0.5 ml of ice-cold 6% (v/v) HClO4. The concentrations of ADP and ATP were determined enzymatically in the acid-extract with methods described (Kawaguchi, T., Veech, R. L., and Uyeda, K. (2001) J. Biol. Chem. 276, 28554-28561), and the cytosolic AMP was calculated by the method of Veech et al. (Veech, R. L., Lawson, J. W., Cornell, N. W., and Krebs, H. A. (1979) J. Biol. Chem. 254, 6538-6547).
Values are expressed as mean±S.E. (n=4).

[5] = system: AMPK; experiment: AMPK activity in hepatocytes (SAMS peptide); type: cell-based, rat; conditions: fatty acid added to high glucose medium
Protocol: The extract was centrifuged at 15,800·g for 15 min, and the resulting supernatant solution was transferred to a fresh tube, adjusted to 10% with polyethylene glycol 8000 ([…], France), and incubated on ice for 20 min. Following centrifugation at 15,800·g for 15 min, the pellet was suspended in 100 μl buffer A. […] A. (2000) Proc. Natl. Acad. Sci. USA. 97, 4023-4028).

[6] = system: C-terminus ChREBP (bHLH/ZIP domain, Thr666); experiment: Phosphorylation/dephosphorylation and DNA binding of recombinant C-terminus ChREBP; type: biochemical, mouse; conditions: catalytic subunit of PP2A 200 units, 30° C
Text: Recombinant Protein Production—Recombinant protein of mouse ChREBP was expressed in Escherichia coli by inserting the C-terminus of the ChREBP construct, encoding the amino acids 651-864 of ChREBP+His6 tag, into the BamHI and HindIII sites of the T7-based expression vector pMal-c2 (New England Bio Lab, Beverly, Mass.) to produce an N-terminal fusion with maltose-binding protein. Expressed protein was purified according to manufacturer's instruction.
Phosphorylation and Dephosphorylation of ChREBP—The reaction mixture contained, in a final volume of 0.2 ml, 50 mM Tris/Cl pH 7.5, 0.2 μM [γ-^32P]ATP (3000 Ci/mmol), 5 mM MgCl2, 0.2 mM EDTA, 2 mM dithiothreitol, and 5 mM potassium phosphate. […] At given time intervals, aliquots were removed and DNA-binding activity was determined by gel shift assay as described in Example 2. [^32P]phosphate-bound ChREBP was also determined as previously described (Kitajima and Uyeda (1983) J. Biol Chem 258, 7352-7357).
FIG. 13A is a graph showing that phosphate incorporation mediated by PKA correlates directly with DNA binding. […] At given time intervals, [^32P]phosphate incorporation (□) and DNA-binding activity (▪) were determined. Values are expressed as mean±SE. […] At given time intervals, remaining phosphorylated C-terminus ChREBP (□) and DNA-binding activity (▪) were determined. Values are expressed as mean±SE.

[7] = system: ChREBP; experiment: Gel shift of purified ChREBP after incubation with PKA/PP2A in vitro; type: biochemical, rat; conditions: catalytic subunit of PP2A 0.025 U/μl added
Protocol: Gel shift assay. Gel mobility shift assays were performed as described by Liu et al. (Liu et al. (1993) J Biol Chem 268, 12787-12795). Double-stranded oligonucleotides (Table 1) were prepared by mixing equal amounts of the complementary single-stranded DNAs in 50 mM NaCl, heating to 70° C. for 15 min, and cooling to room temperature. The annealed oligonucleotides were labeled with ^32P in the presence of [γ^32P]-ATP (Amersham Pharmacia) and T4 polynucleotide kinase (New England Biolabs). Binding reactions were carried out in reaction mixture containing 20 mM Hepes (pH 7.9), 50 mM KCl, 5 mM DTT, 0.2 mM EDTA, 0.5 mM PMSF, 10% glycerol, 1 μg/μl of poly(dI-dC) (Amersham Pharmacia) and 1 μg/μl of nuclear extract. The reaction mixture was incubated at room temperature for 30 min and DNA-protein complexes were separated by electrophoresis in a 4.5% nondenaturing polyacrylamide gel.
Purified ChREBP was incubated with PKA and/or PP2A in vitro and measured by gel-shift analysis with the [^32P]-radiolabeled WT oligonucleotide. Purified ChREBP was incubated for 20 min with ATP (1 mM), PKA (0.1 U/μl), 0.2 U/μl PKI, 0.025 U/μl PP2A and the PP2A inhibitor, okadaic acid (10 nM).

[8] = target: T1, ChREBP (Carbohydrate Response Element Binding Protein) from rat liver (UniProt Q8VIP2)
T1 sequence: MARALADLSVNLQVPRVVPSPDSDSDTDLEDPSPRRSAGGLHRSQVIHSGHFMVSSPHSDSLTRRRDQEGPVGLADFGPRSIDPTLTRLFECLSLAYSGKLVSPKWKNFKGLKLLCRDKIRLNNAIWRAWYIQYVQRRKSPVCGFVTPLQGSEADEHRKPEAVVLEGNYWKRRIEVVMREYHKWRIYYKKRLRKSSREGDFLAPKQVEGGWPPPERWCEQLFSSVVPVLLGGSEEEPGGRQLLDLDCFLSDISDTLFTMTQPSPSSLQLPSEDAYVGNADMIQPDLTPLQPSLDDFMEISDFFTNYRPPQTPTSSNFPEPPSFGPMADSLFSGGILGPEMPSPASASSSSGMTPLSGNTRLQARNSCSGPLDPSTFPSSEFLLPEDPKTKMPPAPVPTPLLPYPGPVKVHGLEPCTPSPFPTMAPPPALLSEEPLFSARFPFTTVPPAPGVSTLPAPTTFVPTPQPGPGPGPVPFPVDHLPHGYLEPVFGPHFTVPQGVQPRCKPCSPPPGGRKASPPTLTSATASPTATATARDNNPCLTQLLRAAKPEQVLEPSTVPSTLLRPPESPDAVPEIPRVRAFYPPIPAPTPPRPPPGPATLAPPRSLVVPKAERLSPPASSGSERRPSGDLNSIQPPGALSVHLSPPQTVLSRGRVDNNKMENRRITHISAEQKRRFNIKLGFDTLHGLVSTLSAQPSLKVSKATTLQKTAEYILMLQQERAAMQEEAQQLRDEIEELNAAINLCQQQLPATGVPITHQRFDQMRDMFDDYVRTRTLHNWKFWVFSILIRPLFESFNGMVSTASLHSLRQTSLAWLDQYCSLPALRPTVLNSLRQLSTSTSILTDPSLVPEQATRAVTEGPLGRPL

[9] = target: T2, ChREBP, purified from rat liver (Rattus norvegicus, UniProt Q8VIP2 Q8VIP2:1-865); experiment: pulldown; DNA-affinity column; eluted at 0.8 M KCl
T2 sequence: T1 sequence

[10] = target: T2, ChREBP, purified from rat liver; experiment: EMSA; purified ChREBP; conditions: label: 32P
Protocol: Purified ChREBP was incubated with PKA and/or PP2A in vitro and measured by gel-shift analysis with the [³²P]-radiolabeled WT oligonucleotide. Purified ChREBP was incubated for 20 min with ATP (1 mM), PKA (0.1 U/μl), 0.2 U/μl PKI, 0.025 U/μl PP2A and the PP2A inhibitor, okadaic acid (10 nM).

CCCC(=O)Nc1ncnc2c1ncn2[C@@H]1O[C@@H]2COP(=O)(O)O[C@H]2[C@H]1OC(=O)CCC [db-cAMP, Dibutyryl (db)-cAMP]
transcriptional activity of S196A+T666A ChREBP double mutant [1]: not inhibited | export of GFP-ChREBP from nuclei to cytoplasm [2]: not exported | time after injection to inactivation of ChREBP DNA-binding activity in liver nuclear extracts [3]: ≤ 10 min

CCCCCCCC(=O)O [octanoate]
AMP [4]: 942 ± 106 nmol/g cells | AMP/ATP ratio [4]: 0.30 ± 0.03 | increase of AMPK activity compared to absence of fatty acid [5]: about two-fold

PP2A: catalytic subunit of protein phosphatase 2A
DNA-binding activity of 32P-phosphorylated bHLH/ZIP domain on incubation with PP2A [6]: complete recovering of the activity | DNA-binding activity of inactivated ChREBP [7]: restored

catalytic subunit of cAMP-dependent protein kinase (PKA)
radiolabeling of ChREBP with γ-[32P]-ATP (SDS-PAGE) [8]: leads to radiolabeling of ChREBP

B1: DNA-affinity column ChRE (dsDNA)
DNA 1: CATGGGCGCACGGGGCACTCCCGTGGTTCC
DNA 2: GGAACCACGGGAGTGCCCCGTGCGCCCATG
binding result [9]: binds

B2: LPK ChRE WT (dsDNA)
DNA 1: GGGCGCACGGGGCACTCCCGTGGTTCC
DNA 2: GGAACCACGGGAGTGCCCCGTGCGCCC
binding result [10]: binds
